Consider 19 compounds from patent publication US10329324B2 (viDA Therapeutics Inc., priority 2013, dated 2019).

Some results are limits rather than exact numbers.

T1 sequence (P10144 21-247): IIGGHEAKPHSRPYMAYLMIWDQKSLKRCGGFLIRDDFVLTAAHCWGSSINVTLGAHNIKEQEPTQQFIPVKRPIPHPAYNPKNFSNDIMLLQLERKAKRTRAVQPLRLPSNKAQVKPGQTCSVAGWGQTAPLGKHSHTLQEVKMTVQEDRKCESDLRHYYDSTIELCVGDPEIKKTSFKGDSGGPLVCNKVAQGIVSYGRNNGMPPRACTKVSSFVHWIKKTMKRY

The first experiment concerns the target T1, human Granzyme B (hGzmB) (Homo sapiens, UniProt P10144).
T1 construct: purchased Froelich Lab, Northshore University Health Systems Research Institute, Evanston, Ill., USA
Description: Human Granzyme B enzymatic inhibition assay (fluorogenic, kinetic). The class given is biochemical.
Conditions: not given
How it is done:
A specific 2× assay buffer was prepared for the enzyme to be tested (see Table 2 for final 1× assay buffer compositions). If the assay buffer included DTT, it was added immediately prior to running the assay. A 2× enzyme mix was prepared (see Table 3 for enzyme assay conditions) at 80 uL per well. Compounds were screened at one or two appropriate concentrations (to determine the percent inhibition at those concentrations) and/or a full dose response curve (typically 8 points, to identify the IC50) in duplicate, triplicate, or higher replicates as needed. An appropriate control was also assessed in full dose response, in duplicate for each assay/plate. Background control wells consisted of 1× assay buffer, DMSO (5% v/v) and substrate. Positive control wells consisted of enzyme, DMSO (5% v/v) and substrate. Test compounds and control compounds were diluted in DMSO to […] the final desired concentration. For example, a test compound may be tested in dose response, in serial, tripling dilution condition starting at 20 uM and ending at 9.1 nM (or any appropriate concentration range and dilution scheme). Control compounds were prepared similarly. Diluted compounds were prepared in a dilution plate and transferred to the reaction plate (96-well medium binding plate (Greiner Bio-One FLUOTRAC™)) to allow for the desired final concentrations when added to the enzyme with AB. After mixing, the reaction plate was placed on a shaker (at 300 RPM) for 5 min, followed by incubation (covered) on the bench, for 20 min. Plates were warmed to reaction temperature (see Table 3) for a total incubation time of 30 min. Plates so prepared were ready for addition of substrate and the subsequent reaction.
(§1) An appropriate substrate for each assay was prepared in advance at 2× the final desired concentration (see Table 2) in DMSO. The appropriate substrate mix was added to each appropriate well on the reaction plate, and the plate was read immediately in the TECAN plate reader (TECAN INFINITE® M1000 Pro), set to the correct wavelength as needed for each assay (see Table 3) using 25 cycles, kinetic interval of 1 min, number of reads per well of 20 with shaking set to 1 s, double orbital, 2 mm amplitude. For fluorescent assays the gain was set to optimal (50%).
An in vitro fluorogenic detection assay for assessing the IC50 and/or percent inhibition at a given concentration of inhibitors against human Granzyme B (hGzmB) enzyme was performed as described in Example D1. When appropriate, percent inhibition data was collected and fitted to generate IC50 data using GraphPad Prism 5 (GraphPad Software, La Jolla Calif. USA, www.graphpad.com) and its non-linear regression analysis tools or other equivalent tools. […]
as §1, with “5)” for “2)”, “assay buffer. 30 uL of the” for “DMSO. The”, “6)” for “3)”, “15” for “25”, “(100% with gain regulation) for all assays except human GzmB which was set to 85 (with the z set at 23000 um).” for “(50%).”
An in vitro fluorogenic detection assay for assessing the IC50 and/or percent inhibition at a given concentration of inhibitors against human Granzyme B (hGzmB) enzyme was performed as described in Example D5. When appropriate, percent inhibition data was collected and fitted to generate IC50 data using GraphPad Prism 5 (GraphPad Software, La Jolla Calif. USA, www.graphpad.com) and its non-linear regression analysis tools or other equivalent tools.
The IC50 is the concentration that gives 50% inhibition. Consider `CC[C@H](C)[C@H](NC(=O)[C@H](N)CC(=O)O)C(=O)NCC(=O)N1c2ccccc2C[C@H]1C(=O)NCc1nn[nH]n1` [Example A38, (3R)-3-Amino-3-{[(1S,2S)-2-Methyl-1-({2-Oxo-2-[(2S)-2-[(2H-1,2,3,4-Tetrazol-5-Ylmethyl)Carbamoyl]-2,3-Dihydro-1H-Indol-1-Yl]Ethyl}Carbamoyl)Butyl]Carbamoyl}Propanoic Acid], for which the IC50 was in the range of 0.1 to 1 µM.

Still in this experiment, the particulars now being: activity codes, Table 7; read-out: IC50 Activity Range.
Consider `CC[C@H](C)[C@H](NC(=O)Cc1ccccc1)C(=O)NCC(=O)N1c2cc(NC(=O)OC(C)(C)C)ccc2C[C@H]1C(=O)NCc1nn[nH]n1` [Example C19, Tert-Butyl N-[(2S)-1-{2-[(2S,3S)-3-Methyl-2-(2-Phenylacetamido)Pentanamido]Acetyl}-2-[(2H-1,2,3,4-Tetrazol-5-Ylmethyl)Carbamoyl]-2,3-Dihydro-1H-Indol-6-Yl]Carbamate], for which the IC50 lay within 0.1 to 1 µM. The same measure, in the same setting: the figure for `CC[C@H](C)[C@H](Nc1ncccn1)C(=O)NCC(=O)N1c2ccccc2C[C@H]1C(=O)NCc1nn[nH]n1` [Example C26, (2S)-1-{2-[(2S,3S)-3-Methyl-2-[(Pyrimidin-2-Yl)Amino]Pentanamido]Acetyl}-N-(2H-1,2,3,4-Tetrazol-5-Ylmethyl)-2,3-Dihydro-1H-Indole-2-Carboxamide] is above 10 µM. Still for that read-out and setting: the figure for `CC[C@H](C)[C@H](NC(=O)Cc1ccccc1)C(=O)N[C@H](CC(=O)O)C(=O)N1c2ccccc2C[C@H]1C(=O)NCc1nn[nH]n1` [Example C15, (3R)-3-[(2S,3S)-3-Methyl-2-(2-Phenylacetamido)Pentanamido]-4-Oxo-4-[(2S)-2-[(2H-1,2,3,4-Tetrazol-5-Ylmethyl)Carbamoyl]-2,3-Dihydro-1H-Indol-1-Yl]Butanoic Acid] is 1 to 10 µM; for `O=C(O)CCC(=O)N[C@H](C(=O)NCC(=O)N1c2ccccc2C[C@H]1C(=O)NCc1nn[nH]n1)c1ccsc1` [Example C23, 3-{[(S)-({2-Oxo-2-[(2S)-2-[(2H-1,2,3,4-Tetrazol-5-Ylmethyl)Carbamoyl]-2,3-Dihydro-1H-Indol-1-Yl]Ethyl}Carbamoyl)(Thiophen-3-Yl)Methyl]Carbamoyl}Propanoic Acid] it is 1 to 10 µM; for `CC[C@H](C)[C@H](NC(=O)C1=C(C(=O)O)CCCC1)C(=O)NCC(=O)N1c2ccccc2C[C@H]1C(=O)NCc1nn[nH]n1` [Example A31] it is below 0.1 µM. On the same count and under the same terms, with `CC[C@@H](C)[C@H](NC(=O)Cc1ccccc1)C(=O)NCC(=O)N1c2ccccc2C[C@H]1C(=O)NCc1nn[nH]n1` [Example A42, (2S)-1-{2-[(2S,3R)-3-Methyl-2-(2-Phenylacetamido)Pentanamido]Acetyl}-N-(2H-1,2,3,4-Tetrazol-5-Ylmethyl)-2,3-Dihydro-1H-Indole-2-Carboxamide] the figure was 1 to 10 µM. As to `CC(C)(C)OC[C@H](NC(=O)Cc1ccccc1)C(=O)NCC(=O)N1c2ccccc2C[C@H]1C(=O)NCc1nn[nH]n1` [Example C8, (2S)-1-{2-[(2S)-3-(Tert-Butoxy)-2-(2-Phenylacetamido)Propanamido]Acetyl}-N-(2H-1,2,3,4-Tetrazol-5-Ylmethyl)-2,3-Dihydro-1H-Indole-2-Carboxamide], the IC50 is above 10 µM. As for `CCC[C@H](NC(=O)Cc1ccccc1)C(=O)NCC(=O)N1c2ccccc2C[C@H]1C(=O)NCc1nn[nH]n1` [Example C5, (2S)-1-{2-[(2S)-2-(2-Phenylacetamido)Pentanamido]Acetyl}-N-(2H-1,2,3,4-Tetrazol-5-Ylmethyl)-2,3-Dihydro-1H-Indole-2-Carboxamide], the IC50 fell in the range of 1 to 10 µM. Still for that read-out and setting: with `CC[C@H](C)[C@H](NC(=O)Cc1ccccc1)C(=O)NCC(=O)N1c2ccccc2CCC1C(=O)NCc1c[nH]nn1` (mixture of isomers) [Example B5, (2S)-1-{2-[(2S,3S)-3-Methyl-2-(2-Phenylacetamido)Pentanamido]Acetyl}-N-(1H-1,2,3-Triazol-4-Ylmethyl)-1,2,3,4-Tetrahydroquinoline-2-Carboxamide] the figure was 1 to 10 µM. `CC(C)(C)[C@H](NC(=O)Cc1ccccc1)C(=O)NCC(=O)N1c2ccccc2C[C@H]1C(=O)NCc1nn[nH]n1` [Example C6, (2S)-1-{2-[(2S)-3,3-Dimethyl-2-(2-Phenylacetamido)Butanamido]Acetyl}-N-(2H-1,2,3,4-Tetrazol-5-Ylmethyl)-2,3-Dihydro-1H-Indole-2-Carboxamide]: the IC50 lay in the range of 1 to 10 µM. The same measure, in the same setting: with `CO[C@H](C)[C@H](NC(=O)Cc1ccccc1)C(=O)NCC(=O)N1c2ccccc2C[C@H]1C(=O)NCc1nn[nH]n1` [Example C7, (2S)-1-{2-[(2S,3R)-3-Methoxy-2-(2-Phenylacetamido)Butanamido]Acetyl}-N-(2H-1,2,3,4-Tetrazol-5-Ylmethyl)-2,3-Dihydro-1H-Indole-2-Carboxamide] the figure was 1 to 10 µM; with `CC[C@H](C)[C@H](NC(=O)Cc1ccccc1)C(=O)NCC(=O)N1c2ccc([N+](C)(C)C)cc2C[C@H]1C(=O)NCc1nn[nH]n1` [Example C34, (2S)—N,N,N-Trimethyl-1-{2-[(2S,3S)-3-Methyl-2-(2-Phenylacetamido)Pentanamido]Acetyl}-2-[(2H-1,2,3,4-Tetrazol-5-Ylmethyl)Carbamoyl]-2,3-Dihydro-1H-Indol-5-Aminium Iodide], above 10 µM.

On to `CC[C@H](C)[C@H](NC(=O)C1CCCC1C(=O)O)C(=O)NCC(=O)N1c2ccccc2C[C@H]1C(=O)NCc1nn[nH]n1` (single isomer, unassigned) [Example A57-2], for which the IC50 was below 0.1 µM. Still for that read-out and setting: the figure for `CC[C@H](C)[C@H](NC(=O)[C@H](C)c1ccccc1)C(=O)NCC(=O)N1c2ccccc2C[C@H]1C(=O)NCc1nn[nH]n1` [Example A49, (2S)-1-{2-[(2S,3S)-3-Methyl-2-[(2R)-2-Phenylpropanamido]Pentanamido]Acetyl}-N-(2H-1,2,3,4-Tetrazol-5-Ylmethyl)-2,3-Dihydro-1H-Indole-2-Carboxamide] is 0.1 to 1 µM. As for `CC(C)(F)C(NC(=O)Cc1ccccc1)C(=O)NCC(=O)N1c2ccccc2C[C@H]1C(=O)NCc1nn[nH]n1` (mixture of isomers) [Example A41, (2S)-1-{2-[3-Fluoro-3-Methyl-2-(2-Phenylacetamido)Butanamido]Acetyl}-N-(2H-1,2,3,4-Tetrazol-5-Ylmethyl)-2,3-Dihydro-1H-Indole-2-Carboxamide], the IC50 is above 10 µM. Still for that read-out and setting: the figure for `CC[C@H](C)[C@H](NC(=O)[C@@H](C)c1ccccc1)C(=O)NCC(=O)N1c2ccccc2C[C@H]1C(=O)NCc1nn[nH]n1` [Example A50, (2S)-1-{2-[(2S,3S)-3-Methyl-2-[(2S)-2-Phenylpropanamido]Pentanamido]Acetyl}-N-(2H-1,2,3,4-Tetrazol-5-Ylmethyl)-2,3-Dihydro-1H-Indole-2-Carboxamide] is 0.1 to 1 µM; for `CC[C@H](C)[C@H](NC(=O)Cc1ccccc1)C(=O)NCC(=O)N1c2ccc(NC(C)(C)C)cc2C[C@H]1C(=O)NCc1nn[nH]n1` [Example C33, (2S)-5-(Tert-Butylamino)-1-{2-[(2S,3S)-3-Methyl-2-(2-Phenylacetamido)Pentanamido]Acetyl}-N-(2H-1,2,3,4-Tetrazol-5-Ylmethyl)-2,3-Dihydro-1H-Indole-2-Carboxamide] it is above 10 µM; for `CC[C@H](C)[C@H](NC(=O)Cc1ccccc1)C(=O)N[C@@H](CCCCN)C(=O)N1c2ccccc2C[C@H]1C(=O)NCc1nn[nH]n1` [Example C18, (2S)-1-[(2S)-6-Amino-2-[(2S,3S)-3-Methyl-2-(2-Phenylacetamido)Pentanamido]Hexanoyl]-N-(2H-1,2,3,4-Tetrazol-5-Ylmethyl)-2,3-Dihydro-1H-Indole-2-Carboxamide] it is above 10 µM.
